Assay [1] deals with TEX cells. The assay is described as follows: ROS generation, DCF-DA and DHE staining. Type of assay: cell-based, human. The conditions noted are these: time-points up to 24 hours. The procedure: FIG. 4. […] (A) Cells from TEX, OCI-AML2 and two primary AML patients were treated with increasing concentrations (2.5 μM and 5 μM) of tigecycline for 36 and 48 hours of tigecycline. Total proteins were extracted and analyzed by western blotting for Cox-1, Cox-2, Cox-4, grp78, XIAP, actin and tubulin. (B) TEX and AML patient cells were treated with increasing concentrations (2.5 μM and 5 μM) of tigecycline. Cox-1, Cox-2, and Cox-4 mRNA expression relative 18S was determined by quantitative RT-PCR. Data is shown as mean±SD. (C) TEX cells were treated with increasing concentrations of tigecycline and chloramphenicol (CAP) for 72 hours. Complex I, II and IV enzyme activity relative to citrate synthase activity was determined as described in materials and methods. (D) Cells from TEX, primary AML patients, and normal donors were treated with increasing concentrations of tigecycline. Mitochondrial membrane potential (Δψ) was determined by staining cells with JC-1 dye, and flow cytometry analysis (Red/Green ratio). Reactive oxygen species generation (ROS) was determined by staining with h2-DCFDA and Dihydroethidium (DHE).
A byproduct of the mitochondrial enzyme activities of the electron transport chain is the generation of reactive oxygen species (ROS). […] Therefore, the role of tigecycline on ROS generation in leukemia cells by analyzing hydrogen peroxide ions (H2O2) using a dichlorofluorescein dye (DCF-DA), and superoxide anions using dihydroethidium (DHE) was examined.

The test system of assay [2] is acute myeloid leukemia (AML). The conditions noted are these: 13 patients treated; cited from earlier work.

antimycin: the ROS generation result in assay [1] was “rapid increases in ROS levels”.

In the case of `CC[C@H]1/C=C/C=C/C[C@@H](C)[C@H](O)[C@@](C)(O)C(=O)[C@@H](C)[C@H](O)[C@@H](C)C(=O)[C@@H](C)[C@H](O)[C@@H](C)/C=C/C(=O)O[C@@H]2[C@H](C)[C@H](CC1)O[C@]1(CC[C@H](C)[C@H](C[C@@H](C)O)O1)[C@H]2C` [oligomycin], in assay [1], the ROS generation result is on record as “rapid increases in ROS levels”.

Turning to `NC(=O)c1ncn([C@@H]2O[C@H](CO)[C@@H](O)[C@H]2O)n1` [ribavirin], in assay [2], the “complete remission (number of patients)” value was 1 and the “partial remissions (number of patients)” value was 2.

Consider `C=C(C)[C@H]1Cc2c(ccc3c2O[C@@H]2COc4cc(OC)c(OC)cc4[C@@H]2C3=O)O1` [rotenone], for which the ROS generation entry in assay [1] is given as “rapid increases in ROS levels”.

These data come from US20120329761A1, “USE OF TIGECYCLINE FOR TREATMENT OF CANCER” (UNIVERSITY HEALTH NETWORK, priority 2010, published 2012).
